The NIST ThermoML archive (doi:10.1021/je101192x)
Numbers after ± are expanded uncertainties.

Test: wn = mass fraction of the nth substance listed
Settings: for viscosity / mass density: 101 kPa, Liquid; for viscosity: Capillary tube (Ostwald / Ubbelohde) method; for mass density: Pycnometric method; for surface tension liquid-gas: Pendant drop shape

Q: What does the source list for CN(CCO)CCO [N-methyldiethanolamine] + O?
A: viscosity (288.15 K, w1 = 0.1): 1.711 ± 0.021 mPa·s; viscosity (288.15 K, w1 = 0.2): 2.631 ± 0.032 mPa·s; mass density (288.15 K, w1 = 0.1): 1007.1 ± 1 kg/m3; mass density (288.15 K, w1 = 0.2): 1017.5 ± 1.1 kg/m3; surface tension liquid-gas (313.15 K, w1 = 0.1): 58.71 ± 2.1 mN/m; surface tension liquid-gas (313.15 K, w1 = 0.2): 54.68 ± 1.9 mN/m; viscosity (313.15 K, w1 = 0.1): 0.905 ± 0.012 mPa·s; viscosity (313.15 K, w1 = 0.2): 1.312 ± 0.018 mPa·s; mass density (313.15 K, w1 = 0.1): 1001.1 ± 1 kg/m3; mass density (313.15 K, w1 = 0.2): 1008.1 ± 1.1 kg/m3
